Measured values published in patent publication US20140235533A1, “DIHYDROFURAN DERIVATIVES AS INSECTICIDAL COMPOUNDS” (SYNGENTA PARTICIPATIONS AG, priority 2011, published 2014).

How the values were obtained:
Format in all cases: in vivo
Spodoptera littoralis = Spodoptera littoralis (Egyptian cotton leafworm) cotton leaf disc spray test; settings: foliar, 72 h, 200 ppm spray on cotton leaf discs, 5 L1 larvae, mortality, feeding behavior, growth regulation 3 days after treatment
From the text: Spodoptera littoralis (Egyptian Cotton Leafworm) Cotton leaf discs were placed on agar in a 24-well microtiter plate and sprayed with test solutions at an application rate of 200 ppm. After drying, the leaf discs were infested with 5 L1 larvae. The samples were checked for mortality, feeding behavior, and growth regulation 3 days after treatment (DAT).

Tetranychus urticae = Tetranychus urticae (two-spotted spider mite) bean leaf disc spray test; settings: foliar, 192 h, 200 ppm spray on bean leaf discs, mite populations of mixed ages, egg, larval and adult mortality 8 days later
From the text: Tetranychus urticae (Two-Spotted Spider Mite): Bean leaf discs on agar in 24-well microtiter plates were sprayed with test solutions at an application rate of 200 ppm. After drying, the leaf discs are infested with mite populations of mixed ages. 8 days later, discs are checked for egg mortality, larval mortality, and adult mortality.

Heliothis virescens = Heliothis virescens (tobacco budworm) egg test on artificial diet; settings: 96 h, 200 ppm (concentration in well 18 ppm), eggs 0-24 h old on artificial diet, egg mortality, larval mortality, growth regulation after 4 days
Protocol: Heliothis virescens (Tobacco Budworm):
Eggs (0-24 h old) were placed in 24-well microtiter plate on artificial diet and treated with test solutions at an application rate of 200 ppm (concentration in well 18 ppm) by pipetting. After an incubation period of 4 days, samples were checked for egg mortality, larval mortality, and growth regulation. The following compound gave at least 80% control of Heliothis virescens: A1, A2, A03, A05, A06, A07, A08, A09, A10, A11, A12, A13, A14, A15, A16, A17, A18, A19, A20, A21, A22, A25, A26, A27, A31, A32, A34, A37, A39, A40, A42, A44, A45, A46, A47, A48, A49, A50, A51, A52, A53, B1**.

Plutella xylostella = Plutella xylostella (diamond back moth) artificial diet MTP test; settings: 144 h, 200 ppm (concentration in well 18 ppm), L2 larvae, larval mortality and growth regulation after 6 days
Protocol: (§1) Plutella xylostella (Diamond Back Moth): 24-well microtiter plate (MTP) with artificial diet was treated with test solutions at an application rate of 200 ppm (concentration in well 18 ppm) by pipetting. After drying, the MTPs were infested with L2 larvae (7-12 per well). After an incubation period of 6 days, samples were checked for larval mortality and growth regulation.

Diabrotica balteata = Diabrotica balteata (corn root worm) artificial diet MTP test; settings: 120 h, 200 ppm (concentration in well 18 ppm), L2 larvae, larval mortality and growth regulation after 5 days
Protocol: as §1, with “Diabrotica balteata (Corn Root Worm): A” for “Plutella xylostella (Diamond Back Moth):”, “(6-10” for “(7-12”, “5” for “6”

Measured: pest or weed control at 200 ppm

O=C(COCc1ccccc1)NCc1ccc(C2=COC(c3cc(Cl)cc(Cl)c3)(C(F)(F)F)C2)cc1Cl (stereo not shown) [Compound A08, 2-benzyloxy-N-[[2-chloro-4-[2-(3,5-dichlorophenyl)-2-(trifluoromethyl)-3H-furan-4-yl]phenyl]methyl]acetamide]
≥ 80%: Spodoptera littoralis | Tetranychus urticae | Heliothis virescens

Cc1cc2ncc(C(=O)NCc3ccc(C4=COC(c5cc(Cl)cc(Cl)c5)(C(F)(F)F)C4)cc3Cl)c(C)n2n1 (stereo not shown) [Compound A40, N-[[2-chloro-4-[2-(3,5-dichlorophenyl)-2-(trifluoromethyl)-3H-furan-4-yl]phenyl]methyl]-2,7-dimethyl-pyrazolo[1,5-a]pyrimidine-6-carboxamide]
≥ 80%: Plutella xylostella | Tetranychus urticae | Heliothis virescens

O=C(Cc1cccs1)NCc1ccc(C2=COC(c3cc(Cl)cc(Cl)c3)(C(F)(F)F)C2)cc1Cl (stereo not shown) [Compound A18, N-[[2-chloro-4-[2-(3,5-dichlorophenyl)-2-(trifluoromethyl)-3H-furan-4-yl]phenyl]methyl]-2-(2-thienyl)acetamide]
not listed: Diabrotica balteata
≥ 80%: all other assays above

CCC(Cl)C(=O)NCc1ccc(C2=COC(c3cc(Cl)cc(Cl)c3)(C(F)(F)F)C2)cc1Cl (stereo not shown) [Compound A47, 2-chloro-N-[[2-chloro-4-[2-(3,5-dichlorophenyl)-2-(trifluoromethyl)-3H-furan-4-yl]phenyl]methyl]butanamide]
not listed: Tetranychus urticae
≥ 80%: all other assays above

Cc1cccnc1C(=O)NCc1ccc(C2=COC(c3cc(Cl)cc(Cl)c3)(C(F)(F)F)C2)cc1Cl (stereo not shown) [Compound A39, N-[[2-chloro-4-[2-(3,5-dichlorophenyl)-2-(trifluoromethyl)-3H-furan-4-yl]phenyl]methyl]-3-methyl-pyridine-2-carboxamide]
not listed: Tetranychus urticae
≥ 80%: all other assays above

C[C@H](NC(=O)C1CC1)c1ccc(C2=COC(c3cc(Cl)c(Cl)c(Cl)c3)(C(F)(F)F)C2)cc1 (stereo partly drawn) [B1*, N-[(1S)-1-[4-[2-(3,4,5-trichlorophenyl)-2-(trifluoromethyl)-3H-furan-4-yl]phenyl]ethyl]cyclopropanecarboxamide]
≥ 80%: all assays above

O=C(NCc1ccc(C2=COC(c3cc(Cl)cc(Cl)c3)(C(F)(F)F)C2)cc1Cl)C1CC1 (stereo not shown) [Compound A2, N-[[2-chloro-4-[2-(3,5-dichlorophenyl)-2-(trifluoromethyl)-3H-furan-4-yl]phenyl]methyl]cyclopropanecarboxamide]
≥ 80%: all assays above

COc1ccc(C(=O)NCc2ccc(C3=COC(c4cc(Cl)cc(Cl)c4)(C(F)(F)F)C3)cc2Cl)cc1 (stereo not shown) [Compound A26, N-[[2-chloro-4-[2-(3,5-dichlorophenyl)-2-(trifluoromethyl)-3H-furan-4-yl]phenyl]methyl]-4-methoxy-benzamide]
not listed: Tetranychus urticae
≥ 80%: all other assays above

CSCC(=O)NCc1ccc(C2=COC(c3cc(Cl)cc(Cl)c3)(C(F)(F)F)C2)cc1Cl (stereo not shown) [Compound A1, N-[[2-chloro-4-[2-(3,5-dichlorophenyl)-2-(trifluoromethyl)-3H-furan-4-yl]phenyl]methyl]-2-methylsulfanyl-acetamide]
≥ 80%: all assays above

C/N=C1/SC(CC(=O)NCc2ccc(C3=COC(c4cc(Cl)cc(Cl)c4)(C(F)(F)F)C3)cc2Cl)C(=O)N1C (stereo not shown) [Compound A15, N-[[2-chloro-4-[2-(3,5-dichlorophenyl)-2-(trifluoromethyl)-3H-furan-4-yl]phenyl]methyl]-2-[(2E)-3-methyl-2-methylimino-4-oxo-thiazolidin-5-yl]acetamide]
≥ 80%: all assays above

CCC(CC)C(=O)NCc1ccc(C2=COC(c3cc(Cl)cc(Cl)c3)(C(F)(F)F)C2)cc1Cl (stereo not shown) [Compound A03, N-[[2-chloro-4-[2-(3,5-dichlorophenyl)-2-(trifluoromethyl)-3H-furan-4-yl]phenyl]methyl]-2-ethyl-butanamide]
≥ 80%: all assays above

O=C(NCc1ccc(C2=COC(c3cc(Cl)cc(Cl)c3)(C(F)(F)F)C2)cc1Cl)C1CCCO1 (stereo not shown) [Compound A07, N-[[2-chloro-4-[2-(3,5-dichlorophenyl)-2-(trifluoromethyl)-3H-furan-4-yl]phenyl]methyl]tetrahydrofuran-2-carboxamide]
≥ 80%: all assays above

O=C(NCc1ccc(C2=COC(c3cc(Cl)cc(Cl)c3)(C(F)(F)F)C2)cc1Cl)c1cccc(F)c1F (stereo not shown) [Compound A20, N-[[2-chloro-4-[2-(3,5-dichlorophenyl)-2-(trifluoromethyl)-3H-furan-4-yl]phenyl]methyl]-2,3-difluoro-benzamide]
not listed: Tetranychus urticae
≥ 80%: all other assays above

O=C(COc1ccccc1)NCc1ccc(C2=COC(c3cc(Cl)cc(Cl)c3)(C(F)(F)F)C2)cc1Cl (stereo not shown) [Compound A19, N-[[2-chloro-4-[2-(3,5-dichlorophenyl)-2-(trifluoromethyl)-3H-furan-4-yl]phenyl]methyl]-2-phenoxy-acetamide]
not listed: Spodoptera littoralis
≥ 80%: all other assays above

CS(=O)(=O)CC(=O)NCc1ccc(C2=COC(c3cc(Cl)cc(Cl)c3)(C(F)(F)F)C2)cc1Cl (stereo not shown) [Compound A51, N-[[2-chloro-4-[2-(3,5-dichlorophenyl)-2-(trifluoromethyl)-3H-furan-4-yl]phenyl]methyl]-2-methylsulfonyl-acetamide]
≥ 80%: all assays above

CC1CCCCC1C(=O)NCc1ccc(C2=COC(c3cc(Cl)cc(Cl)c3)(C(F)(F)F)C2)cc1Cl (stereo not shown) [Compound A11, N-[[2-chloro-4-[2-(3,5-dichlorophenyl)-2-(trifluoromethyl)-3H-furan-4-yl]phenyl]methyl]-2-methyl-cyclohexanecarboxamide]
≥ 80%: Plutella xylostella | Tetranychus urticae | Heliothis virescens

O=C(Cc1ccccc1)NCc1ccc(C2=COC(c3cc(Cl)cc(Cl)c3)(C(F)(F)F)C2)cc1Cl (stereo not shown) [Compound A14, N-[[2-chloro-4-[2-(3,5-dichlorophenyl)-2-(trifluoromethyl)-3H-furan-4-yl]phenyl]methyl]-2-phenyl-acetamide]
not listed: Diabrotica balteata
≥ 80%: all other assays above

Cn1nc(C(=O)NCc2ccc(C3=COC(c4cc(Cl)cc(Cl)c4)(C(F)(F)F)C3)cc2Cl)sc1=O (stereo not shown) [Compound A50, N-[[2-chloro-4-[2-(3,5-dichlorophenyl)-2-(trifluoromethyl)-3H-furan-4-yl]phenyl]methyl]-4-methyl-5-oxo-1,3,4-thiadiazole-2-carboxamide]
not listed: Tetranychus urticae
≥ 80%: all other assays above
